Results as given in PubChem BioAssay (NCI).
Values joined by “and” are separate entries in the source; they are usually repeats but may differ in a detail not shown here. Equal values may be shown once.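 Briefly, cells in 96-well plates were exposed to five compound concentrations for 48 h, and endpoints were estimated by linear interpolation. Definition used: TGI = concentration required for complete inhibition of growth.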

Assays:
Experiment in all cases: growth of human tumour cells (NCI), 48 h
[1] = tested on: U251 CNS
[2] = tested on: SW-620 colon
[3] = tested on: SNB-19 CNS
[4] = tested on: MDA-MB-231 breast
[5] = tested on: KM12 colon
[6] = tested on: PC-3 prostate
[7] = tested on: TK-10 renal
[8] = tested on: SK-MEL-28 melanoma
[9] = tested on: MDA-MB-435
[10] = tested on: CCRF-CEM leukemia

Row | Structure (SMILES) | TGI [1] | TGI [2] | TGI [3] | TGI [4] | TGI [5] | TGI [6] | TGI [7] | TGI [8] | TGI [9] | TGI [10]
1 | CC(=O)C(C(C)=O)[C@@H]1OC(C)(C)O[C@@H]1[C@H]1COC(C)(C)O1 | > 100 µM | > 100 µM | > 100 µM | > 100 µM | > 100 µM | > 100 µM | > 100 µM | > 100 µM | > 100 µM | –
2 | Cc1ccc(-c2cc[n+]3c(n2)oc2ccccc23)cc1 | > 100 µM | > 100 µM | > 100 µM | > 100 µM | > 100 µM | – | – | 57.8 µM | 57.6 µM | 36.3 µM
3 | CC1SC2(CCCCC2)N(NC(=O)CSc2nc3ccc(Cl)cc3c(=O)n2-c2ccccc2)C1=O (stereo not given) | 31.6 µM | 75.2 µM | 66.9 µM | 35 µM | > 100 µM | 56.1 µM | > 100 µM | 88.4 µM | 54.7 µM | > 100 µM
4 | O=C(c1cccnc1)N1N=C(c2ccccc2)CC1(O)c1cc(F)c(Cl)cc1Cl (stereo not given) | 32.4 µM | > 100 µM | > 100 µM | 35.4 µM | > 100 µM | 72.2 µM | > 100 µM | 65.5 µM | > 100 µM | > 100 µM
5 | CCCCCCCCCCCCCCCCCCNC(=S)/N=C/c1c(O)c2ccccc2[nH]c1=O | 40.5 µM | 42.4 µM | 36.3 µM | 30.3 µM | 30.9 µM | – | 56.1 µM | 40.4 µM | 42.3 µM | –
6 | Cc1ccc(N=Nc2c(O)ccc3cc(S(=O)(=O)O)ccc23)cc1 | > 100 µM | > 100 µM | > 100 µM | > 100 µM and 45.7 µM | > 100 µM | > 100 µM | > 100 µM | > 100 µM | > 100 µM | > 100 µM
7 | Cn1c2ccccc2c2cc(N3CCCC3)c3c(c21)C(=O)N(c1ccccc1)C3=O | > 100 µM | > 100 µM | > 100 µM | > 100 µM | > 100 µM | > 100 µM | > 100 µM | > 100 µM | > 100 µM | > 100 µM
8 | S=c1nc(N/N=C/c2cccs2)c2cn[nH]c2[nH]1 | 77.6 µM | > 100 µM | > 100 µM | > 100 µM | 39.1 µM | 37.5 µM | 49.3 µM | > 100 µM | 51.9 µM | –
9 | CN(CCCNC(=O)c1nn(C)c2c1Cc1ccccc1-2)CCCNC(=O)c1nn(C)c2c1Cc1ccccc1-2 | 26.2 µM | 27.9 µM | 26.4 µM | 36.1 µM | 35.4 µM | 34.1 µM | 36.2 µM | 38.2 µM | 27 µM | 10.9 µM
10 | O=C1CC(=O)NC(=NN2C(=O)CSC2C(=O)c2ccco2)N1 (stereo not given) | > 100 µM | > 100 µM | – | > 100 µM | > 100 µM | > 100 µM | > 100 µM | > 100 µM | > 100 µM | > 100 µM
11 | Cc1nc2ccc(F)cc2c(Cl)c1CCCl | > 100 µM | > 100 µM | > 100 µM | 73.8 µM | > 100 µM | > 100 µM | > 100 µM | > 100 µM | 82.5 µM | 48.4 µM
12 | CN1CCc2c(sc3ncn(Nc4ccc(Cl)cc4)c(=N)c23)C1 | > 100 µM | > 100 µM | > 100 µM | > 100 µM | > 100 µM | > 100 µM | > 100 µM | > 100 µM | > 100 µM | > 100 µM
13 | C=C(C)[C@H]1C2=CC(C)=C(O2)[C@@H](O)[C@H](C(=C)C)CCC2=C[C@H]1OC2=O | > 100 µM | > 100 µM | > 100 µM | > 100 µM | > 100 µM | > 100 µM | > 100 µM | > 100 µM | > 100 µM | > 100 µM
14 | CN(C)CCNC(=O)c1cccc2nc3c(C(=O)NCCN(C)C)cccc3nc12 | 11.2 µM | 12.1 µM | 21.6 µM | 3.4 µM | 8.82 µM | 2.67 µM | 6.81 µM | 4.64 µM | 2.59 µM | 12.7 µM
15 | COC(=O)c1c(C)cccc1C1CN=NC12Cc1cc(C)cc(C)c1C2=O (stereo not given) | > 100 µM | > 100 µM | > 100 µM | 98.2 µM | > 100 µM | > 100 µM | 98.3 µM | > 100 µM | > 100 µM | 63.8 µM
16 | Cc1cc2c(cc1C)C(=O)C1(C2)Cc2cc3c(cc2C1=O)CCC3 (stereo not given) | > 100 µM | > 100 µM | > 100 µM | – | > 100 µM | > 100 µM | > 100 µM | > 100 µM | > 100 µM | > 100 µM
17 | O=C(N/N=C\c1cccc2ccccc12)Nc1cccc2ccccc12 | 34.9 µM | > 100 µM | 48.9 µM | 45.8 µM | > 100 µM | > 100 µM | 56.5 µM | > 100 µM | 24.3 µM | > 100 µM
18 | Cc1cc2n[n+]3[n-]cc(-c4ccccc4)n3c2cc1[N+](=O)[O-] | > 100 µM | > 100 µM | > 100 µM | > 100 µM | > 100 µM | > 100 µM | > 100 µM | > 100 µM | > 100 µM | > 100 µM
19 | C=CC(=O)N1C/C(=C\c2ccc([N+](=O)[O-])cc2)C(=O)/C(=C/c2ccc([N+](=O)[O-])cc2)C1 | 0.978 µM | 1.96 µM | 3.08 µM | 0.278 µM | 0.607 µM | 0.361 µM | 2.09 µM | 1.74 µM | 1.36 µM | –
20 | COC1=C(C)C(=O)C2=C(C1=O)C1C3CC4=C(C(=O)C(OC)=C(C)C4=O)C(CNC(=O)C(C)O)N3C(C#N)C(C2)N1C (stereo not given) | – | 0.235 µM | 1.92 µM | 0.0178 µM | 0.827 µM | 1.74 µM | 0.579 µM | < 0.0217 µM | < 0.01 µM | 1.38 µM
21 | O=C(Nc1ccccc1Cl)c1ccc([N+](=O)[O-])cc1 | > 100 µM | > 100 µM | > 100 µM | – | > 100 µM | – | > 100 µM | > 100 µM | – | > 100 µM
22 | COc1cc(C2C3=C(CCCC3=O)N(c3ccc(C)cc3)C3=C2C(=O)CCC3)c([N+](=O)[O-])cc1OC | > 100 µM | > 100 µM | > 100 µM | – | > 100 µM | > 100 µM | > 100 µM | > 100 µM | – | > 100 µM
